Measurements published in US20200016125A1, “GRANZYME B INHIBITOR COMPOSITIONS AND METHODS FOR THE PREVENTION AND/OR TREATMENT OF SKIN BLISTERING AND/OR PEELING” (The University of British Columbia, priority 2017, published 2020).

Columns and labels:
GzmB [1] = target: T1, GzmB (Homo sapiens, UniProt P10144); experiment: GzmB cleavage assay of collagen VII with GzmB inhibitors (Western Blot); format: biochemical; settings: for inhibition of GzmB-mediated collagen VII cleavage: FIG. 3, collagen VII 500 ng, 200 mM of GzmB, 24 hours 37° C., GzmB incubated with inhibitor 1 hour before substrate
T1 construct: purchased EmeraldBio
T1 sequence (P10144 21-247): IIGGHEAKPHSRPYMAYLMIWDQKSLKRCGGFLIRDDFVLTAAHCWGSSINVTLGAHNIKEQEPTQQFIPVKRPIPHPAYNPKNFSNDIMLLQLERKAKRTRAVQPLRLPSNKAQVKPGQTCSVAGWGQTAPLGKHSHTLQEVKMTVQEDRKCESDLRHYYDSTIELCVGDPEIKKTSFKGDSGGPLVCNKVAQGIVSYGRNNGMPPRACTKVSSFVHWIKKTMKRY
Procedure: (§1) Addition of GzmB inhibitors (Serpin A3N, Compound 20, Compound A) prevented GzmB-mediated collagen VII cleavage. Bands indicating fragments are labeled. GzmB cleavage assay was performed in 40 μL of PBS. Briefly, collagen VII (500 ng) was incubated with […] of GzmB for 24 hours at 37° C. For inhibition, GzmB was incubated with Compound 20, Serpin A3N and Compound A for 1 hour at 37° C. prior to the addition of collagen VII. After 24 hours, all samples were loaded onto a 10% SDS-PAGE, blotted on a PVDF membrane and incubated with a primary antibody specific for collagen VII (rabbit anti-collagen VII, Abcam plc) overnight at 4° C., and then with a secondary labeled anti-rabbit antibody for 1 hour at room temperature.
(§2) For inhibition studies, prior to the addition of substrates to the reaction, GzmB was incubated in the presence of 100 μM Compound A for 1 hour at 37° C. After 24 hours incubation, proteins were denatured, separated on a 4%-20% SDS-PAGE gel (for α6/β4). […] For inhibition studies, prior to the addition of substrates to the reaction, GzmB was incubated in the presence of 100 μM Compound A for 1 hour at 37° C. After 24 hours incubation, nidogen-2 protein was denatured and separated on a 7.5% SDS-PAGE gel. Cleavage was detected by anti-nidogen-2 antibody (R&D Systems). […] For inhibition studies, prior to the addition of substrates to the reaction, GzmB was incubated in the presence of 100 μM Compound A for 1 hour at 37° C. After 24 hours incubation, collagen VII protein was denatured and separated on a 10% SDS-PAGE gel. Cleavage was detected by anti-collagen VII antibody (ABCAM, Toronto, ON).
as §1, with “A” for “Addition of GzmB inhibitors (Serpin A3N, Compound 20, Compound A) prevented GzmB-mediated collagen VII cleavage. Bands indicating fragments are labeled.”, “hours” for “hours,”, “on” for “on a”
(§3) The recombinant human integrin α6/β4 (α6 a.a. 24-878, β4 a.a. 28-710, R&D Systems, Minneapolis, Minn.), collagen VII (199-482 a.a., MyBiosource, San Diego, Calif.), collagen XVII (a.a. 490-1497, generous gift from Dr. Claus-Werner Franzke), and collagen I (Novus Biologicals, Littleton, Colo.) were incubated for 24 hours at 37° C. in 200 nM purified human GzmB (EmeraldBio, Bainbridge Island, Wash.). For inhibition studies, prior to the addition of substrates to the reaction, GzmB was incubated in the presence of 600 nm serpin A3N (generous gift from Dr. Chris R. Bleackley, University of Alberta, Edmonton, AB, Canada) or 100 NM of the small molecule inhibitor Compound 20 (courtesy of the Centre for Drug Research and Development, Vancouver, BC) for 1 hour at 37° C. After the 24 hours incubation, proteins were denatured, separated on a 4-20% (for integrin α6/β4), 10% (for collagen VII), 8-10% (for collagen XVII), or 7.5% (for collagen I) SDS-polyacrylamide gel. Cleavage was detected by Western Blot using anti-human integrin α6 sub-unit (ABCAM), anti-human integrin β4 sub-unit (R&D Systems, Minneapolis, Minn.), anti collagen VII (ABCAM), and anti-human collagen XVII (generous gift from Dr. Claus-Werner Franzke) and imaged using a Li-Cor Odissey® FC (Li-Cor, Lincoln, Nebr.). […]

GzmB [2] = target: T1, GzmB; experiment: GzmB cleavage assay of integrin α6/β4 (α6 and β4 sub-units) with GzmB inhibitors; format: biochemical
Procedure: as §2
as §3, with “After the 24 hours incubation, proteins were denatured, separated on a 4-20% (for integrin α6/β4), 10% (for collagen VII), 8-10% (for collagen XVII), or 7.5% (for collagen I) SDS-polyacrylamide gel.” left out

GzmB [3] = target: T1, GzmB; experiment: GzmB-mediated cleavage of nidogen-2 with inhibitor (Western Blot); format: biochemical; settings: FIG. 22B; nidogen-2 residues 31-1375, 500 ng, 200 nM purified human GzmB, 100 μM Compound A
Procedure: as §2

[4] = test system: diabetic mouse model, burn injury to induce blistering; experiment: Burn injury blistering in diabetic mouse model; format: in vivo; settings: for blistering compared to saline-only treatment: FIG. 8B, 30-day study
Procedure: FIGS. 8A through 8C provide evidence Compound A, a GzmB inhibitor, prevents blistering. Mice were exposed to burn injury by heating a steal rod for 6 seconds to 100° C. to induce blistering. Two independent experiments were run: In FIG. 8A, Compound A was added daily for 30 days. […] In FIG. 8B, Compound A in PBS (3.6 mg/mL) was administered daily by subcutaneous injection and in a gel (3.6 mg/mL) administered daily by topical application.
In this example mice were exposed to burn injury by heating a steal rod for 6 seconds to 100° C. to induce blistering.
There were two separate experiments run. Experiment 1 was a 30-day 3-arm study. Arm 1 consisted of treating the mouse daily with Compound A (3.6 mg/mL) in PBS by subcutaneous injection. In arm 2, Compound A (3.6 mg/mL) was administered to the mouse by daily topical application in the gel. In arm 3, the mouse was administered daily by subcutaneous injection saline as a control.
Experiment 2 was a 25-day 2-arm study. Arm 1 consisted of administering daily, through topical application, Compound A (3.6 mg/mL) in the gel. Arm 2 consisted of administering daily the vehicle gel through topical application as a control.

GzmB [5] = target: T1, GzmB; experiment: GzmB-mediated cleavage of collagen XVII with inhibitors (Western Blot); format: biochemical; settings: FIG. 16A, collagen XVII a.a. 490-1497, 200 nM GzmB, pre-incubation with Compound 20 or serpin A3N
Procedure: Black arrow indicates cleavage fragment and * indicates full-length protein. GzmB produces a cleavage band, and this cleavage is abolished by the addition of Com20 or S3AN. […] Dotted lines indicate separation between the epidermis and the dermis. Scale bars represent […].
as §3, with “After the 24 hours incubation, proteins were denatured, separated on a 4-20% (for integrin α6/β4), 10% (for collagen VII), 8-10% (for collagen XVII), or 7.5% (for collagen I) SDS-polyacrylamide gel.” left out

Q: `CC[C@H](C)[C@H](NC(=O)CCC(=O)O)C(=O)NCC(=O)N1C(=O)N(C2CCCCC2)C[C@H]1C(=O)NCc1nn[nH]n1` [Compound A, 4-(((2S,3S)-1-((2-((S)-5-(((2H-tetrazol-5-yl)methyl)carbamoyl)-3-cyclohexyl-2-oxoimidazolidin-1-yl)-2-oxoethyl)amino)-3-methyl-1-oxopentan-2-yl)amino)-4-oxobutanoic acid] was tested. Which “inhibition of GzmB-mediated collagen VII cleavage” value (GzmB [1]) did it give?
A: prevented

Q: What about the “inhibition of GzmB-mediated cleavage of collagen VII” value (shortened to “inhibition … of collagen VII”) (GzmB [1]; FIG. 22C, collagen VII residues 199-482, 500 ng, 200 nM purified human GzmB, 100 μM Compound A pre-incubated 1 hour) of the same molecule?
A: this cleavage is prevented

Q: And the “inhibition of GzmB-mediated cleavage of α6β4 integrin” value (GzmB [2]; FIG. 22A, Coomassie staining, 200 nM purified human GzmB, 100 μM Compound A pre-incubated 1 hour)?
A: can prevent the cleavage

Q: And the “inhibition of GzmB-mediated cleavage of nidogen-2” value (GzmB [3])?
A: this cleavage was prevented

Q: What about the blistering ([4]; FIG. 8A, mice, burn injury, Compound A daily for 30 days versus saline-treated skin) of the same molecule?
A: Blistering is prevented

Q: And the “blistering compared to saline-only treatment” value ([4]; Compound A in PBS 3.6 mg/mL, daily subcutaneous injection)?
A: reduce blistering

Q: What about the “blistering compared to saline-only treatment” value ([4]; Compound A in gel 3.6 mg/mL, daily topical application) of the same molecule?
A: reduce blistering

Q: And the “blistering compared to gel alone” value ([4]; FIG. 8C, Compound A in gel 3.6 mg/mL, daily topical application, 25-day study)?
A: reduced blistering

B1: Serpin A3N: an irreversible serine protease inhibitor used as GzmB inhibitor (protein, UniProt Q91WP6 21-418, looked up)
Serine protease inhibitor A3N: FPDGTLGMDAAVQEDHDNGTQLDSLTLASINTDFAFSLYKELVLKNPDKNIVFSPLSISAALAVMSLGAKGNTLEEILEGLKFNLTETSEADIHQGFGHLLQRLNQPKDQVQISTGSALFIEKRQQILTEFQEKAKTLYQAEAFTADFQQPRQAKKLINDYVRKQTQGMIKELVSDLDKRTLMVLVNYIYFKAKWKVPFDPLDTFKSEFYAGKRRPVIVPMMSMEDLTTPYFRDEELSCTVVELKYTGNASALFILPDQGRMQQVEASLQPETLRKWKNSLKPRMIDELHLPKFSISTDYSLEDVLSKLGIREVFSTQADLSAITGTKDLRVSQVVHKAVLDVAETGTEAAAATGVKFVPMSAKLYPLTVYFNRPFLIMIFDTETEIAPFIAKIANPK
Q: For B1, which “inhibition of GzmB-mediated collagen VII cleavage” value (GzmB [1]) is on record?
A: prevented

Q: And the “inhibition … of collagen VII” value (GzmB [1]; FIG. 15A, collagen VII a.a. 199-482, 200 nM purified human GzmB, 24 hours, pre-incubation with 600 nm serpin A3N or 100 NM Compound 20)?
A: prevented the appearance of both ˜20 and 25 kDa bands

Q: And the “inhibition … of collagen VII” value (GzmB [1]; FIG. 15A, collagen VII a.a. 199-482, 200 nM purified human GzmB, 24 hours, pre-incubation with 600 nm serpin A3N or 100 NM Compound 20, listed as S3AN)?
A: abolished

Q: What about the “inhibition of GzmB-mediated cleavage of the α6 integrin subunit” value (GzmB [2]; FIG. 13A, 200 nM GzmB, Western Blot, Compound 20 100 μM, serpin A3N 600 nM) of the same molecule?
A: prevented the cleavage

Q: And the “inhibition of GzmB-mediated cleavage of β4 integrin sub-unit” value (GzmB [2]; FIG. 14A, 200 nM GzmB, Western Blot, Compound 20 100 μM, serpin A3N 600 nM)?
A: prevented the cleavage

Q: What about the “inhibition of GzmB-mediated cleavage of collagen XVII (NC16 ectodomain)” value (GzmB [5]) of the same molecule?
A: prevented NC16 cleavage

Q: What about the “inhibition of GzmB-mediated cleavage of collagen XVII (NC16 ectodomain)” value (GzmB [5]; listed as S3AN) of the same molecule?
A: abolished
